Reference: paper PMC8056227, “Deverra tortuosa (Desf.) DC from Saudi Arabia as a new source of marmin and furanocoumarins derivatives with α-glucosidase, antibacterial and cytotoxic activities” (Heliyon, 2021)

Experiments:
[1] = system: Enterococcus faecalis: ATCC 29212; experiment: Antibacterial well diffusion, E. faecalis; format: cell-based; parameters: dose or concentration left out as unconfirmed
Text: (§1) ATCC strains (American Type Culture Collection) were purchased from BD (Becton, Dickinson and Company). These strains were primarily activated in brain heart infusion broth and then grown on nonselective media nutrient agar (NA). A total of 7 bacterial strains (Escherichia. coli: ATCC 25922, Klebsiella pneumonia: ATCC 700603, Proteus mirabilis: ATCC 14153, Salmonella typhimurium: ATCC 14028, Pseudomonas aeruginosa: ATCC 254992, Staphylococcus aureus: ATCC 254996 and Enterococcus faecalis: ATCC 29212) were tested for antibacterial activity.
(§2) The 0.5 Macfarland standards were used to prepare the bacterial inoculum from log phase bacterial growth. Muller-Hinton agar (MHA) media plates were prepared aseptically in a safety cabinet; the medium was used to evaluate antibacterial activity. Sterile cork borer was used to make five wells (6 mm). MHA medium was swabbed with fresh culture (24 h ATCC bacterial strains). […] As a positive control, 15 μg of tetracycline was used and the negative control consists of 50 μL DMSO. The test was conducted with 3 replications. The plates were incubated according to Clinical and Laboratory Standards Institute guidelines ([CLSI 2017]) and the experiments were carried out aerobically at 35–37 °C for 18–20 h. The diameter of the inhibition zone around the wells was measured using a ruler, and the mean and standard deviation were calculated for three readings.

[2] = system: Salmonella typhimurium: ATCC 14028; experiment: Antibacterial well diffusion, S. typhimurium; format: cell-based; parameters: dose or concentration left out as unconfirmed
Text: as §1, §2

[3] = system: MCF-7 (breast cancer) cells; experiment: MTT cytotoxicity assay, MCF-7; format: cell-based; conditions: Homo sapiens, MCF7, 72 h, read-out: percentage of inhibition, MCF-7
Description: (§3) In the present study, two cancer cell lines were tested: HCT116 (colorectal carcinoma) and MCF-7 (breast cancer) (American Type Culture Collection, USA). Fetal calf serum (FCS: 10 %) and L-glutamine (2 mM) were used to make complete growth medium to conserve the cell lines (RPMI: Roswell Park Memorial Institute, France). Cell lines were incubated at 37 °C under atmosphere conditions of CO2 (5%). All tests were performed when the cells reached 80% confluence, and a trypan blue exclusion assay was used to test the viability of the cell lines ([Louis and Siegel, 2011]).
The cytotoxicity of the isolated compounds against HCT116 (colorectal carcinoma) and MCF-7 (breast cancer) cells was evaluated spectrophotometrically through an MTT assay. The assay was performed in 96-well microtiter plates ([Bekir et al., 2013]). The concentrations of HCT-116 and MCF-7 cells were fixed at 10 × 10^3 and 12 × 10^3 cells/well, respectively. The adherent cells were incubated overnight (37 °C) in a 5% enriched CO2 atmosphere. […] After removing the medium, incubated cells (37 °C) were mixed with 50 μL of MTT solution (3 mg/mL in phosphate-buffered saline, PBS) for 20–40 min. The […] proceeded by adding 80 μL of 100% DMSO. The measurement of the obtained reaction was taken spectrophotometrically at 540 nm. As a positive control, Doxorubicin, a conventional anticancer drug, was used. Cell viability was measured using formula II:II % Inhibition = […]where Abs control is the absorbance measured of the total cell activity as described without any inhibition; Abs blank control is the absorbance of MTT substrate; and Abs sample is the absorbance of each inhibitor compound sample.

α-glucosidase = experiment: α-Glucosidase inhibitory activity (PNPG substrate); format: biochemical; conditions: pH 6.8, 37 °C, 30 min
Description: (2013)]. The substrate P-nitrophenyl-α-D-glucopyranoside (PNPG) was used for this experiment. Dimethyl sulfoxide (DMSO) was used to prepare different concentrations of the compounds (10–1000 μM). […] Afterwards, 40 μL of PNPG solution (0.375 mM) prepared in phosphate buffer (pH = 6.8) was added to the mixture and then incubated (37 °C for 30 min). 80 μL of Na2CO3 (0.2 M) prepared in phosphate buffer was added to the mixture. The absorbance was measured at 405 nm, and the measurement was replicated 3 times. The percentage of inhibition (%) reflects the α-glucosidase inhibitory activity and was calculated by formula (I):(I) α-glucosidase inhibition activity (%) = [(Acontrol – Asample)/Acontrol] × 100where Asample is the absorbance (405 nm) in the presence of the isolated compound and Acontrol is the absorbance (405 nm) of the control (A control consists of 20 μL potassium phosphate buffer instead of α-glucosidase solution).

[4] = system: HCT116 (colorectal carcinoma) cells; experiment: MTT cytotoxicity assay, HCT116; format: cell-based; conditions: Homo sapiens, HCT-116, 72 h, read-out: percentage of inhibition, HCT-116
Description: as §3
The cytotoxicity of the isolated compounds against HCT116 (colorectal carcinoma) and MCF-7 (breast cancer) cells was evaluated spectrophotometrically through an MTT assay. The assay was performed in 96-well microtiter plates ([Bekir et al., 2013]). The concentrations of HCT-116 and MCF-7 cells were fixed at 10 × 10^3 and 12 × 10^3 cells/well, respectively. The adherent cells were incubated overnight (37 °C) in a 5% enriched CO2 atmosphere. […] Cell viability was measured using formula II:II % Inhibition = 100∗[(Abs control – Abs blank control)/(Abs sample- Abs blank sample)]where Abs control is the absorbance measured of the total cell activity as described without any inhibition; Abs blank control is the absorbance of MTT substrate; and Abs sample is the absorbance of each inhibitor compound sample.

[5] = system: Klebsiella pneumonia: ATCC 700603; experiment: Antibacterial well diffusion, K. pneumonia; format: cell-based; parameters: zone of inhibition: dose or concentration left out as unconfirmed; conditions: for antibacterial activity in words, K. pneumonia: 1 mg/mL; for zone of inhibition: Klebsiella pneumoniae, ATCC700603, range stated over 3 compounds and 3 strains
Text: as §1, §2

[6] = system: Pseudomonas aeruginosa: ATCC 254992; experiment: Antibacterial well diffusion, P. aeruginosa; format: cell-based; parameters: dose or concentration left out as unconfirmed; conditions: ATCC254992, range stated over 3 compounds and 3 strains
Text: as §1
(§4) The 0.5 Macfarland standards were used to prepare the bacterial inoculum from log phase bacterial growth. Muller-Hinton agar (MHA) media plates were prepared aseptically in a safety cabinet; the medium was used to evaluate antibacterial activity. Sterile cork borer was used to make five wells (6 mm). MHA medium was swabbed with fresh culture (24 h ATCC bacterial strains). 50 μL of the tested compounds (0.5 mg/mL) prepared in DMSO were dispensed in the wells. As a positive control, 15 μg of tetracycline was used and the negative control consists of 50 μL DMSO. The test was conducted with 3 replications. The plates were incubated according to Clinical and Laboratory Standards Institute guidelines ([CLSI 2017]) and the experiments were carried out aerobically at 35–37 °C for 18–20 h. The diameter of the inhibition zone around the wells was measured using a ruler, and the mean and standard deviation were calculated for three readings.

[7] = system: Proteus mirabilis: ATCC 14153; experiment: Antibacterial well diffusion, P. mirabilis; format: cell-based; parameters: dose or concentration left out as unconfirmed
Text: as §1, §2

[8] = system: Escherichia. coli: ATCC 25922; experiment: Antibacterial well diffusion, E. coli; format: cell-based; parameters: dose or concentration left out as unconfirmed; conditions: ATCC25922, range stated over 3 compounds and 3 strains
Text: as §1, §4

[9] = system: Escherichia. coli: ATCC 25922; parameters: method as in Tsassi et al., 2010; conditions: previous studies on marmin; ref Tsassi et al., 2010; cited from earlier work

Row | SMILES | IC50 (α-glucosidase) | zone of inhibition ([1]; Enterococcus faecalis, ATCC29212, read-out: inhibition zone (IZ), E. faecalis) | zone of inhibition ([2]; Salmonella enterica, read-out: inhibition zone (IZ), S. typhimurium) | inhibition at 100 µM [3] | inhibition at 100 µM [4] | antibacterial activity in words, K. pneumonia [5] | zone of inhibition [5] | zone of inhibition [6] | antibacterial activity in words, E. faecalis [1] | antibacterial activity in words, P. mirabilis [7] | antibacterial activity in words, S. typhimurium [2] | zone of inhibition [8] | inhibition zone, E. coli (previous studies) [9]
1 | COc1c2ccoc2c(OC)c2oc(=O)ccc12 [Compound 5, Isopimpinellin] |  |  |  | 30.6% |  | did not seem to be active | 6 to 12 mm | 6 to 12 mm | did not seem to be active | did not seem to be active | did not seem to be active | 6 to 12 mm | 
2 | COc1c2ccoc2cc2oc(=O)ccc12 [Compound 4, Bergapten] |  |  |  |  |  | did not seem to be active | 6 to 12 mm | 6 to 12 mm | did not seem to be active | did not seem to be active | did not seem to be active | 6 to 12 mm | 
3 | C/C(=C\COc1ccc2ccc(=O)oc2c1)CC[C@@H](O)C(C)(C)O [Compound 1, Marmin] | 186 ± 8.3 µM |  |  | 17.1% | 41.8% |  |  |  |  |  |  |  | 9.5 mm

Second part, led by results:

Row | IC50 (α-glucosidase) | SMILES | zone of inhibition ([1]; Enterococcus faecalis, ATCC29212, read-out: inhibition zone (IZ), E. faecalis) | zone of inhibition ([2]; Salmonella enterica, read-out: inhibition zone (IZ), S. typhimurium) | inhibition at 100 µM [3] | inhibition at 100 µM [4] | antibacterial activity in words, K. pneumonia [5] | zone of inhibition [5] | zone of inhibition [6] | antibacterial activity in words, E. faecalis [1] | antibacterial activity in words, P. mirabilis [7] | antibacterial activity in words, S. typhimurium [2] | zone of inhibition [8] | inhibition zone, E. coli (previous studies) [9]
4 | 347 ± 11.2 µM | CC(=CCOc1ccc2ccc(=O)oc2c1)CCC(O)C(C)(C)OC1OC(CO)C(O)C(O)C1O (stereo not drawn) [Compound 2, Pituranthoside] | 22 mm | 21 mm | 29.9% | 42.7% |  |  |  |  |  |  |  | 
5 | 171 ± 7.6 µM | CC(C)=CCOc1c2ccoc2cc2oc(=O)ccc12 [Compound 3, Isoimperatorin] |  |  | 43.2% |  | did not seem to be active | 6 to 12 mm | 6 to 12 mm | did not seem to be active | did not seem to be active | did not seem to be active | 6 to 12 mm | 
